Reference: patent US8609715B2, “Heteroarylcarboxylic acid ester derivative” (Ajinomoto Co., Inc., priority 2009, dated 2013)
Where a name gives a salt, the structure may show the parent alone.

Biological target: recombinant human enteropeptidase (Homo sapiens (Human), UniProt P98073)
Test: Measurement of enteropeptidase inhibitory activity
Assay type: biochemical
Details: Dixon plot
Experimental: Measurement of Enteropeptidase Inhibitory Activity
Using a 96 well plate (#3915, Costar), a test compound (25 μL), 400 mM Tris-HCl buffer (pH 8.0, 25 μL) and 0.5 mg/mL fluorescence enzyme substrate (Gly-Asp-Asp-Asp-Asp-Lys-β-Naphtylamide, 25 μL) were mixed, and recombinant human enteropeptidase (R&D Systems, Inc., 25 μL) was added. Using a fluorescence plate reader fmax (Molecular Devices, Inc.), the reaction rate was measured from the time-course changes at excitation wavelength 320 nm and fluorescence wavelength 405 nm. The Ki value was calculated from the concentration of the test compound, reciprocal of reaction rate, and Km value of the enzyme substrate, and by using Dixon plot.

Chain of recombinant human enteropeptidase (P98073 whole entry): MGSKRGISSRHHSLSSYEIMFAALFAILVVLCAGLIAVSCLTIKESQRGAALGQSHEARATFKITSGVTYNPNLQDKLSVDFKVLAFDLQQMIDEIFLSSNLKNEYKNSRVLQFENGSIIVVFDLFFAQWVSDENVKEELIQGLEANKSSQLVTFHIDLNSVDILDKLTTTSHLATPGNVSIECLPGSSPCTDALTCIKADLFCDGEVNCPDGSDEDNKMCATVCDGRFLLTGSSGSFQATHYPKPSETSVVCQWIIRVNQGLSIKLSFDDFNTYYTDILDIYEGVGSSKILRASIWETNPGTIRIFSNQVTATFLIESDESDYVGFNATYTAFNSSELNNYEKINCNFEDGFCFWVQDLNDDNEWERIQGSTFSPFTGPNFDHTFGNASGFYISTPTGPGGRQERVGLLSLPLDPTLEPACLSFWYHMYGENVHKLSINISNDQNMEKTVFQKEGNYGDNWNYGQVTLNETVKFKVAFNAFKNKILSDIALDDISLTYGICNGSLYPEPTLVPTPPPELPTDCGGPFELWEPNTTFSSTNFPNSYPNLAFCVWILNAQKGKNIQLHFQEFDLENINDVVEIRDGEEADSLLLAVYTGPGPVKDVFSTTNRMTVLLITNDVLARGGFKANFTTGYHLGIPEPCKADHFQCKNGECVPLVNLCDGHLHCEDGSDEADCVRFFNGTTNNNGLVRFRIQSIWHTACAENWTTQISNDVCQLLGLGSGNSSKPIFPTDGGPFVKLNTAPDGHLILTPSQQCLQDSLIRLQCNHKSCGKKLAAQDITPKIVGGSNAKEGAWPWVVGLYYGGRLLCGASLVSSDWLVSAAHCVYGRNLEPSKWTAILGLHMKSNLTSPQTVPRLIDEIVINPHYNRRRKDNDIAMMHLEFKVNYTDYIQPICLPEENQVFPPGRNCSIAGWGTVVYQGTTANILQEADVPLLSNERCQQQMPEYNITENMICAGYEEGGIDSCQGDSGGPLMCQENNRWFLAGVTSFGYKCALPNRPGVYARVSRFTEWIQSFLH

Ki	Structure (SMILES)
0.71 nM	CC(Cc1ccc(C(=O)Oc2ccc(C(=N)N)cc2)o1)C(=O)O (stereo in doubt) [Compound A-42, 3-[5-(4-amidinophenoxycarbonyl)furan-2-yl]-2R-methylpropionic acid trifluoroacetic acid salt]
2.27 nM	C/C(=C\c1ccc(C(=O)Oc2ccc(C(=N)N)cc2)o1)C(=O)N[C@@H](CO)C(=O)O [Compound A-1]
1.97 nM	C/C(=C\c1ccc(C(=O)Oc2ccc(C(=N)N)cc2)o1)C(=O)NCC(=O)O [Compound A-2]
1.15 nM	C/C(=C\c1ccc(C(=O)Oc2ccc(C(=N)N)cc2)o1)C(=O)O [Compound A-3, (2E)-3-[5-(4-amidinophenoxycarbonyl)-furan-2-yl]-2-methylpropenoic acid trifluoroacetic acid salt]
2.68 nM	CC(Cc1ccc(C(=O)Oc2ccc(C(=N)N)cc2)o1)C(=O)NCC(=O)O (stereo not drawn) [Compound A-4]
1.37 nM	CC(Cc1ccc(C(=O)Oc2ccc(C(=N)N)cc2)o1)C(=O)N[C@@H](CO)C(=O)O (stereo partly drawn) [Compound A-5]
0.62 nM	CC(Cc1ccc(C(=O)Oc2ccc(C(=N)N)cc2)o1)C(=O)O (stereo not drawn) [Compound A-6, 3-[5-(4-amidinophenoxycarbonyl)furan-2-yl]-2-methylpropionic acid trifluoroacetic acid salt]
1.49 nM	C/C(=C\c1ccc(C(=O)Oc2ccc(C(=N)N)cc2)o1)C(=O)N(CCCO)CC(=O)O [Compound A-7]
3.17 nM	CC(Cc1ccc(C(=O)Oc2ccc(C(=N)N)cc2)o1)C(=O)N(CCCO)CC(=O)O (stereo not drawn) [Compound A-9]
6.73 nM	C/C(=C\c1ccc(C(=O)Oc2ccc(C(=N)N)cc2)o1)C(=O)N(CCO)Cc1ccccc1 [Compound A-10]
3.31 nM	C/C(=C\c1ccc(C(=O)Oc2ccc(C(=N)N)cc2)o1)C(=O)N(CCCO)CCC(=O)O [Compound A-12, N-{(2E)-3-[5-(4-amidino-2-phenoxycarbonyl)furan-2-yl]-2-methylpropenoyl}-N-(3-hydroxypropyl)-β-alanine trifluoroacetic acid salt]
3.52 nM	C/C(=C\c1ccc(C(=O)Oc2ccc(C(=N)N)cc2)o1)C(=O)N[C@H](C(=O)O)C(C)O (stereo partly drawn) [Compound A-14]
1.63 nM	CC(Cc1ccc(C(=O)Oc2ccc(C(=N)N)cc2)o1)C(=O)N[C@@H](CCC(=O)O)C(=O)O (stereo partly drawn) [Compound A-15]
1.88 nM	CC(Cc1ccc(C(=O)Oc2ccc(C(=N)N)cc2)o1)C(=O)N[C@H](C(=O)O)C(C)O (stereo partly drawn) [Compound A-16]
0.61 nM	CC(Cc1ccc(C(=O)Oc2ccc(C(=N)N)cc2)o1)C(=O)N[C@@H](CC(=O)O)C(=O)O (stereo partly drawn) [Compound A-18]
1.91 nM	CC(Cc1ccc(C(=O)Oc2ccc(C(=N)N)cc2)o1)C(=O)N1CCC[C@@H]1C(=O)O (stereo partly drawn) [Compound A-19]
2.54 nM	CC(Cc1ccc(C(=O)Oc2ccc(C(=N)N)cc2)o1)C(=O)N1C[C@H](O)C[C@@H]1C(=O)O (stereo partly drawn) [Compound A-20]
4.81 nM	CC(Cc1ccc(C(=O)Oc2ccc(C(=N)N)cc2)o1)C(=O)N1C[C@@H](O)C[C@H]1C(=O)O (stereo partly drawn) [Compound A-21]
0.95 nM	C[C@H](Cc1ccc(C(=O)Oc2ccc(C(=N)N)cc2)o1)C(=O)N[C@@H](CC(N)=O)C(=O)O [Compound A-22]
2 nM	C[C@@H](Cc1ccc(C(=O)Oc2ccc(C(=N)N)cc2)o1)C(=O)N[C@@H](CC(N)=O)C(=O)O [Compound A-23]
0.68 nM	CC(Cc1ccc(C(=O)Oc2ccc(C(=N)N)cc2)o1)C(=O)N(CC(=O)O)CC(=O)O (stereo not drawn) [Compound A-26]
0.57 nM	CC(Cc1ccc(C(=O)Oc2ccc(C(=N)N)cc2)o1)C(=O)N[C@H](CCC(=O)O)C(=O)O (stereo partly drawn) [Compound A-27]
0.42 nM	CC(Cc1ccc(C(=O)Oc2ccc(C(=N)N)cc2)o1)C(=O)N[C@H](CC(=O)O)C(=O)O (stereo partly drawn) [Compound A-28]
0.82 nM	CCC(Cc1ccc(C(=O)Oc2ccc(C(=N)N)cc2)o1)C(=O)O (stereo not drawn) [Compound A-29, 3-[5-(4-amidinophenoxycarbonyl)furan-2-yl]-2-ethylpropionic acid trifluoroacetic acid salt]
1.03 nM	CC[C@H](Cc1ccc(C(=O)Oc2ccc(C(=N)N)cc2)o1)C(=O)N[C@H](CCC(=O)O)C(=O)O [Compound A-30]
0.5 nM	CCC(Cc1ccc(C(=O)Oc2ccc(C(=N)N)cc2)o1)C(=O)N[C@H](CC(=O)O)C(=O)O (stereo partly drawn) [Compound A-31]

Ki	Structure (SMILES)
0.62 nM	N=C(N)c1ccc(OC(=O)c2ccc(CC(=O)O)o2)cc1 [Compound A-32, 5-(4-amidinophenoxycarbonyl)furan-2-ylacetic acid trifluoroacetic acid salt]
0.65 nM	CC(Cc1ccc(C(=O)Oc2ccc(C(=N)N)cc2F)o1)C(=O)O (stereo not drawn) [Compound A-33]
0.98 nM	CCCC(Cc1ccc(C(=O)Oc2ccc(C(=N)N)cc2)o1)C(=O)O (stereo not drawn) [Compound A-34]
0.25 nM	CC(Cc1ccc(C(=O)Oc2ccc(C(=N)N)cc2F)o1)C(=O)N[C@H](CC(=O)O)C(=O)O (stereo partly drawn) [Compound A-35, N-{3-[5-(4-amidino-2-fluorophenoxycarbonyl)furan-2-yl]-2-methylpropanoyl}-N-(D)-aspartic acid trifluoroacetic acid salt]
0.58 nM	CC(Cc1ccc(C(=O)Oc2ccc(C(=N)N)cc2)o1)S(=O)(=O)O (stereo not drawn) [Compound A-36, 1-[5-(4-amidinophenoxycarbonyl)furan-2-yl]propane-2-sulfonic acid trifluoroacetic acid salt]
0.64 nM	N=C(N)c1ccc(OC(=O)c2ccc(CCC(=O)O)o2)cc1 [Compound A-37]
0.57 nM	N=C(N)c1ccc(OC(=O)c2ccc(CCC(=O)N[C@@H](CC(=O)O)C(=O)O)o2)cc1 [Compound A-38]
0.67 nM	N=C(N)c1ccc(OC(=O)c2ccc(CC(=O)N[C@@H](CC(=O)O)C(=O)O)o2)cc1 [Compound A-39, N-[5-(4-amidinophenoxycarbonyl)furan-2-ylacetyl]-(L)-aspartic acid trifluoroacetic acid salt]
0.5 nM	C[C@H](Cc1ccc(C(=O)Oc2ccc(C(=N)N)cc2)o1)C(=O)O [Compound A-41, 3-[5-(4-amidinophenoxycarbonyl)furan-2-yl]-2S-methylpropionic acid trifluoroacetic acid salt]
0.4 nM	C[C@@H](Cc1ccc(C(=O)Oc2ccc(C(=N)N)cc2)o1)C(=O)N[C@@H](CC(=O)O)C(=O)O [Compound A-43, N-{3-[5-(4-amidinophenoxycarbonyl)-furan-2-yl]-2S-methylpropionyl}-L-aspartic acid trifluoroacetic acid salt]
0.33 nM	C[C@H](Cc1ccc(C(=O)Oc2ccc(C(=N)N)cc2)o1)C(=O)N[C@@H](CC(=O)O)C(=O)O [Compound A-44, N-[3-[5-(4-amidinophenoxycarbonyl)-furan-2-yl]-2R-methylpropionyl]-L-aspartic acid trifluoroacetic acid salt]
0.46 nM	C[C@@H](Cc1ccc(C(=O)Oc2ccc(C(=N)N)cc2)o1)C(=O)N[C@H](CC(=O)O)C(=O)O [Compound A-45, N-{3-[5-(4-amidinophenoxycarbonyl)-furan-2-yl]-2S-methylpropionyl}-D-aspartic acid trifluoroacetic acid salt]
0.35 nM	C[C@H](Cc1ccc(C(=O)Oc2ccc(C(=N)N)cc2)o1)C(=O)N[C@H](CC(=O)O)C(=O)O [Compound A-46, N-{3-[5-(4-amidinophenoxycarbonyl)-furan-2-yl]-2R-methylpropionyl}-D-aspartic acid trifluoroacetic acid salt]
1.9 nM	CC(Cc1ccc(C(=O)Oc2ccc(C(=N)N)cc2)o1)C(=O)NCCc1ccccc1 (stereo not drawn) [Compound A-47, 5-{2-methyl-2-[(2-phenylethyl)-carbamoyl]ethyl}furan-2-carboxylic acid 4-amidinophenyl ester trifluoroacetic acid salt]
1.3 nM	CC(C)CCNC(=O)C(C)Cc1ccc(C(=O)Oc2ccc(C(=N)N)cc2)o1 (stereo not drawn) [Compound A-48]
7.6 nM	CC(Cc1ccc(C(=O)Oc2ccc(C(=N)N)cc2)o1)C(=O)NCCN(C)C (stereo not drawn) [Compound A-49]
4.4 nM	CC(Cc1ccc(C(=O)Oc2ccc(C(=N)N)cc2)o1)C(=O)NCCO (stereo not drawn) [Compound A-50]
4.9 nM	CC(Cc1ccc(C(=O)Oc2ccc(C(=N)N)cc2)o1)C(=O)N1CCCC1 (stereo not drawn) [Compound A-51]
2.5 nM	CC(Cc1ccc(C(=O)Oc2ccc(C(=N)N)cc2)o1)C(=O)N1CCCC(C(=O)O)C1 (stereo not drawn) [Compound A-52, N-{3-[5-(4-amidinophenoxycarbonyl)-furan-2-yl]-2-methylpropanoyl}nipecotic acid trifluoroacetic acid salt]
1.3 nM	C=CCN(CC(=O)O)C(=O)CCc1ccc(C(=O)Oc2ccc(C(=N)N)cc2)o1 [Compound A-55, N-{3-[5-(4-amidinophenoxycarbonyl)-furan-2-yl]-propionyl}-N-allylglycine trifluoroacetic acid salt]
1.1 nM	CC(Cc1ccc(C(=O)Oc2ccc(C(=N)N)cc2)o1)C(=O)NCP(=O)(O)O (stereo not drawn) [Compound A-56]
0.39 nM	CC(Cc1ccc(C(=O)Oc2ccc(C(=N)N)cc2)o1)C(=O)N[C@@H](CS(=O)(=O)O)C(=O)O (stereo partly drawn) [Compound A-57]
0.7 nM	CC(CCC(=O)O)Cc1ccc(C(=O)Oc2ccc(C(=N)N)cc2)o1 (stereo not drawn) [Compound A-58, 5-[5-(4-amidinophenoxycarbonyl)furan-2-yl]-4-methylpentanoic acid trifluoroacetic acid salt]
0.35 nM	CC(CCC(=O)N[C@@H](CC(=O)O)C(=O)O)Cc1ccc(C(=O)Oc2ccc(C(=N)N)cc2)o1 (stereo partly drawn) [Compound A-59, N-{5-[5-(4-amidinophenoxycarbonyl)furan-2-yl]-4-methylpentanoyl}-L-aspartic acid trifluoroacetic acid salt]
0.31 nM	N=C(N)c1ccc(OC(=O)c2ccc(CC(CCC(=O)O)C(=O)O)o2)cc1 (stereo not drawn) [Compound A-60, 5-[5-(4-amidinophenoxycarbonyl)furan-2-yl]-4-carboxypentanoic acid trifluoroacetic acid salt]
